In patent US20230099441A1, “HETEROCYCLIC COMPOUND, APPLICATION THEREOF, AND COMPOSITION CONTAINING SAME” (GenEros Biopharma Ltd., priority 2019, published 2023):

How the values were obtained:
[1] = system: STAT5 Y694 phosphorylation; test: Protein electrophoresis and blotting of STAT5 Y694 phosphorylation in Jurkat cells stimulated with human interferon beta; format: cell-based; conditions: for Inhibiting Ratio (0% for vehicle control): 1 hour pretreatment, 20 ng/ml human interferon beta 30 minutes, pSTAT5/GAPDH
Procedure, shortened: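 Serum-free Jurkat cells pretreated with compound 1 h, then stimulated with 20 ng/ml human interferon beta for 30 min at 37° C. pSTAT5 measured by western blot with chemiluminescence, normalized to GAPDH and expressed as percent of DMSO control.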

[2] = system: mouse collagen-induced arthritis model; test: Therapeutic efficacy in a mouse collagen-induced arthritis model (clinical score); format: in vivo; conditions: for clinical score of arthritis, Mean (the larger the value, the more severe the disease): mean of group, total score 0-12, oral, Methotrexate 0.25 mg/kg once a week, Tofacitinib 5 mg/kg once a day, X8 1 mg/kg once a day
Source text: Example of Effect 2: Evaluation of the Therapeutic Efficacy of X8 Compound in a Mouse Collagen-Induced Arthritis Model
Sixty male DBA/1J mice (9-10 weeks old, H-2q haplotype) were acclimatized in a standard animal room for one week and then randomly divided into 5 groups. Except for the healthy control group, the rest were inoculated with collagen antigen injection, and then received oral treatment with different compounds. The brief procedure was to mix bovine type II collagen (purchased from Chondrex, 20021) with an equal volume of Freund's complete adjuvant (purchased from Sigma, F5881), the concentration was 4 mg/ml, and it was treated with a homogenizer at a speed of 20,000 revolutions/min for 5-10 minutes. A needle was inserted between the left side of the dorsal caudal artery and the lateral vein of the mouse, and 50 microliters of modeling agent was injected subcutaneously. 21 days after the first injection, another injection was injected between the right side of the dorsal tail artery and the lateral vein of the mouse. After the first injection, oral administration was started. The drug was formulated with […] PEG300, and it was prepared for immediate use. […] The total score was between 0-12 points, and the swelling of the foot after vaccination was not calculated.

[3] = system: STAT5 Y694 phosphorylation; test: HTRF experiment: STAT5 Y694 phosphorylation in Hela cells stimulated with human interferon beta; format: cell-based; conditions: 2 hours pretreatment, 10 nM human interferon beta 30 minutes

O=C(Cc1ccc(C(F)(F)F)cc1)N1CCC(n2c(=O)[nH]c3ccccc32)CC1 [Example X8, 1-(1-(2-(4-(trifluoromethyl)phenyl)acetyl)piperidin-4-yl)-1H-benzo[d]imidazole-2(3H)-one]
Inhibiting Ratio (0% for vehicle control) ([1]; 1 μM): 6.9%
Inhibiting Ratio (0% for vehicle control) ([1]; 10 μM): 31.4%
Inhibiting Ratio (0% for vehicle control) ([1]; 100 μM): 95.6%
Example of Effect 1: Inhibiting Ability (Protein Electrophoresis and Blotting) ([1]; observed pSTAT5 bands at 10 μM and 100 μM): +
therapeutic effect on severity of the disease (in words) ([2]; X8 1 mg/kg once a day oral, compared with tofacitinib 5 mg/kg once a day): comparable effects to the tofacitinib treatment group, which significantly reduced the severity of the disease
clinical score of arthritis, Mean (the larger the value, the more severe the disease) ([2]; day 0): 0.00
clinical score of arthritis, Mean (the larger the value, the more severe the disease) ([2]; day 21): 0.00
clinical score of arthritis, Mean (the larger the value, the more severe the disease) ([2]; day 25): 0.00
clinical score of arthritis, Mean (the larger the value, the more severe the disease) ([2]; day 28): 0.98
clinical score of arthritis, Mean (the larger the value, the more severe the disease) ([2]; day 31): 1.66
clinical score of arthritis, Mean (the larger the value, the more severe the disease) ([2]; day 33): 2.39
clinical score of arthritis, Mean (the larger the value, the more severe the disease) ([2]; day 35): 2.64
clinical score of arthritis, Mean (the larger the value, the more severe the disease) ([2]; day 38): 2.87
clinical score of arthritis, Mean (the larger the value, the more severe the disease) ([2]; day 40): 2.87
clinical score of arthritis, Mean (the larger the value, the more severe the disease) ([2]; day 42): 3.17
clinical score of arthritis, Mean (the larger the value, the more severe the disease) ([2]; day 45): 3.39
Example of Effect 3: Inhibiting Ratio@10 μM (HTRF Experiment) [3]: 22.60%
